This is an account of results in patent publication US7670579B2, “Nanostructured bioactive materials prepared by dual nozzle spray drying techniques” (American Dental Association Foundation, priority 2004, dated 2010).

Data set [1] is described as follows: Reaction of CaF2 with macro DCPD in water paste, XRD. The data set is classed as physicochemical. The following applies: paste with water 1g/1 mL, 100% humidity, 37° C., 24 h. The method, then: In another test, mixtures containing a macro (median size 1.6 μm) DCPD and either the nano CaF2 or a macro CaF2 were mixed with water (1g/1 mL) and the pastes were left in 100% humidity at 37° C. for 24 h.

The conditions of data set [2]: comparison value for crystalline CaF2; cited from earlier work.
Data set [3] in a line: Solubility of salts in saturated spray drying solutions (Table 2). The data set is classed as physicochemical. From the text:
Other examples of the methods of the invention include formation of nano particles of other components. For example, compositions of solution to be spray dried for preparing nano particles of various calcium phosphate phases are set forth in Table 2. Because MCPM is highly soluble, the solution for the nano MCPM production can be prepared by dissolving an appropriate amount of MCPM or other sources of Ca (for example CaCO3) and P (for example H3PO4) in a solution of the desired concentration (Table 2). For the preparation of nano particles of other calcium phosphates, a volatile weak acid is used to facilitate solubilization of the calcium phosphate ions. […] In general, a minimum amount of the volatile weak acid, necessary to keep the calcium and phosphate ions in the solution, is used to facilitate the removal of the acid in the spray drying process.

The conditions of data set [4]: cited from earlier work.
Setting [5] is: acetic acid, high: DCPD/DCPA 996, OCP 995, ACP/TCP 985, HA 998 mmol/L.
Setting [6] is: acetic acid, low: DCPD/DCPA 0, OCP 0.04, ACP/TCP 0, HA 0.122 mmol/L.
Setting [7] is: carbonic acid, high: DCPD/DCPA 1000 mol/L, OCP 1018, ACP/TCP 1152, HA 1004 mmol/L.
Where [8] appears, read: carbonic acid, low: DCPD/DCPA 0, OCP 0.04, ACP/TCP 0, HA 0.164 mmol/L.

With `[Ca+2].[F-].[F-]` [crystalline CaF2, Calcium fluoride], the “consumption of CaF2 by reaction with DCPD (XRD)” value in data set [1] was “no reduction”. Moreover, the Ksp in data set [2] is given as 3.9×10^−11.
For Hydroxyapatite [HA], the “[Ca] of saturated solution” value was determined as 132 mmol/L in data set [3] (setting [5]), 0.1 mmol/L in data set [3] (setting [6]), 14.2 mmol/L in data set [3] (setting [7]) and 0.1 mmol/L in data set [3] (setting [8]). Also, the “[P] of saturated solution” value in data set [3] (setting [5]) turned out to be 79 mmol/L; in data set [3] (setting [6]), 0.06 mmol/L; in data set [3] (setting [7]), 8.54 mmol/L; in data set [3] (setting [8]), 0.06 mmol/L. For the same compound, the “pH of saturated solution” value is given as 3.9 in data set [3] (setting [5]), 6.8 in data set [3] (setting [6]), 4.6 in data set [3] (setting [7]) and 6.8 in data set [3] (setting [8]). In addition, the “IAP(HA)” value in data set [4] (comparison value for crystalline HA) was 1×10^−117. Further, in data set [4] (comparison value for macro scale HA), the “pIAP(HA)” value is 117.
